Experiment: Clinical trial ERC-205: DHEA 50 mg daily versus placebo on hot flushes in postmenopausal women (Example 10)
Type: in vivo
Details: 50 mg, strata 50 to 70 hot flushes per week at screening
Method: Postmenopausal women experiencing moderate or severe hot flushes per week (as determined by a two week diary) were randomized to receive a daily dose of either placebo or 50 mg DHEA. Fifty evaluable participants (25 patients per arm) were treated for four months with a daily assessment of hot flushes recorded in a diary completed by each participant.
Postmenopausal women aged 40 to 70 years with moderate or severe hot flushes per week, as confirmed by a two-week screening hot flush diary were enrolled after signing informed consent. The protocol was approved by the Institutional Review Board (IRB) of Le Centre Hospitalier de l'Université Laval and by Health Canada.
The primary endpoint was the change from Baseline in the weekly frequency of moderate to severe hot flushes at Week 16, after four months of treatment. The objectives also included the change from Baseline in the weekly frequency of all hot flushes and the change from Baseline in the weekly weighted severity score.
The response endpoint is the patient's paper diary which was filled in daily to specify the number and type of hot flushes as follows:
The hot flush diary began as a Screening diary for two weeks prior to randomization whereby patients had to complete the diary daily, recording the number and severity of hot flushes. The patients had to record an average of 50 or more moderate or severe hot flushes per week over the two-week period to be eligible (i.e., at least 100 hot flushes documented on the two week Screening diary).
Once randomized, the patient completed eight, two-week hot flush diaries upon beginning study medication. The diaries had to be filled out on a daily basis. The first diary was completed over the first two weeks and be returned on the two week visit. The second two-week diary was completed over the next two weeks of the first four week treatment period and was returned at the four week visit. At 4, 8, 12 and 16 week visits, two two-week diaries for hot flushes were collected.

[1] = Screening (mean of 2 w), baseline

C[C@]12CC[C@H](O)CC1=CC[C@@H]1[C@@H]2CC[C@]2(C)C(=O)CC[C@@H]12 [DHEA, dehydroepiandrosterone]
NUMBER OF ALL HOT FLUSHES PER WEEK (MEAN) [1]: 63.7 | NUMBER OF MODERATE TO SEVERE HOT FLUSHES PER WEEK (MEAN) [1]: 56.7 | WEIGHTED SEVERITY SCORE OF HOT FLUSHES PER WEEK (MEAN) [1]: 144.3 | NUMBER OF ALL HOT FLUSHES PER WEEK (MEAN) (Week 1): 60.8 | NUMBER OF MODERATE TO SEVERE HOT FLUSHES PER WEEK (MEAN) (Week 1): 54.2 | WEIGHTED SEVERITY SCORE OF HOT FLUSHES PER WEEK (MEAN) (Week 1): 141.0 | NUMBER OF ALL HOT FLUSHES PER WEEK (MEAN) (Week 2): 55.3 | NUMBER OF MODERATE TO SEVERE HOT FLUSHES PER WEEK (MEAN) (Week 2): 49.0 | WEIGHTED SEVERITY SCORE OF HOT FLUSHES PER WEEK (MEAN) (Week 2): 127.1 | NUMBER OF ALL HOT FLUSHES PER WEEK (MEAN) (Week 3): 52.3 | NUMBER OF MODERATE TO SEVERE HOT FLUSHES PER WEEK (MEAN) (Week 3): 46.5 | WEIGHTED SEVERITY SCORE OF HOT FLUSHES PER WEEK (MEAN) (Week 3): 118.9 | NUMBER OF ALL HOT FLUSHES PER WEEK (MEAN) (Week 4): 49.4 | NUMBER OF MODERATE TO SEVERE HOT FLUSHES PER WEEK (MEAN) (Week 4): 44.0 | WEIGHTED SEVERITY SCORE OF HOT FLUSHES PER WEEK (MEAN) (Week 4): 111.6 | NUMBER OF ALL HOT FLUSHES PER WEEK (MEAN) (Week 5): 42.7 | NUMBER OF MODERATE TO SEVERE HOT FLUSHES PER WEEK (MEAN) (Week 5): 38.3 | WEIGHTED SEVERITY SCORE OF HOT FLUSHES PER WEEK (MEAN) (Week 5): 97.8 | NUMBER OF ALL HOT FLUSHES PER WEEK (MEAN) (Week 6): 43.7 | NUMBER OF MODERATE TO SEVERE HOT FLUSHES PER WEEK (MEAN) (Week 6): 39.8 | WEIGHTED SEVERITY SCORE OF HOT FLUSHES PER WEEK (MEAN) (Week 6): 99.0 | NUMBER OF ALL HOT FLUSHES PER WEEK (MEAN) (Week 7): 39.2 | NUMBER OF MODERATE TO SEVERE HOT FLUSHES PER WEEK (MEAN) (Week 7): 34.7 | WEIGHTED SEVERITY SCORE OF HOT FLUSHES PER WEEK (MEAN) (Week 7): 88.3 | NUMBER OF ALL HOT FLUSHES PER WEEK (MEAN) (Week 8): 41.8 | NUMBER OF MODERATE TO SEVERE HOT FLUSHES PER WEEK (MEAN) (Week 8): 38.1 | WEIGHTED SEVERITY SCORE OF HOT FLUSHES PER WEEK (MEAN) (Week 8): 95.8 | NUMBER OF ALL HOT FLUSHES PER WEEK (MEAN) (Week 9): 42.4 | NUMBER OF MODERATE TO SEVERE HOT FLUSHES PER WEEK (MEAN) (Week 9): 38.5 | WEIGHTED SEVERITY SCORE OF HOT FLUSHES PER WEEK (MEAN) (Week 9): 96.0 | NUMBER OF ALL HOT FLUSHES PER WEEK (MEAN) (Week 10): 40.5 | NUMBER OF MODERATE TO SEVERE HOT FLUSHES PER WEEK (MEAN) (Week 10): 36.6 | WEIGHTED SEVERITY SCORE OF HOT FLUSHES PER WEEK (MEAN) (Week 10): 92.7 | NUMBER OF ALL HOT FLUSHES PER WEEK (MEAN) (Week 11): 39.5 | NUMBER OF MODERATE TO SEVERE HOT FLUSHES PER WEEK (MEAN) (Week 11): 35.6 | WEIGHTED SEVERITY SCORE OF HOT FLUSHES PER WEEK (MEAN) (Week 11): 89.8 | NUMBER OF ALL HOT FLUSHES PER WEEK (MEAN) (Week 12): 39.7 | NUMBER OF MODERATE TO SEVERE HOT FLUSHES PER WEEK (MEAN) (Week 12): 35.8 | WEIGHTED SEVERITY SCORE OF HOT FLUSHES PER WEEK (MEAN) (Week 12): 88.5 | NUMBER OF ALL HOT FLUSHES PER WEEK (MEAN) (Week 13): 36.2 | NUMBER OF MODERATE TO SEVERE HOT FLUSHES PER WEEK (MEAN) (Week 13): 32.8 | WEIGHTED SEVERITY SCORE OF HOT FLUSHES PER WEEK (MEAN) (Week 13): 81.4 | NUMBER OF ALL HOT FLUSHES PER WEEK (MEAN) (Week 14): 37.8 | NUMBER OF MODERATE TO SEVERE HOT FLUSHES PER WEEK (MEAN) (Week 14): 34.2 | WEIGHTED SEVERITY SCORE OF HOT FLUSHES PER WEEK (MEAN) (Week 14): 87.0 | NUMBER OF ALL HOT FLUSHES PER WEEK (MEAN) (Week 15): 36.5 | NUMBER OF MODERATE TO SEVERE HOT FLUSHES PER WEEK (MEAN) (Week 15): 33.7

From patent publication US11452731B2, “Method of treating and preventing loss of cognition” (ENDORECHERCHE, INC., priority 2009, dated 2022)
